Test results as given in patent publication US20230217925A1, “FENCLORIM SEED TREATMENT AS A BIOSTIMULANT” (THE BOARD TRUSTEES OF THE UNIVERSITY OF ARKANSAS, priority 2022, published 2023).

Legend:
Type in all cases: in vivo
[1] = test system: sixteen of the most common rice cultivars planted in the state of Arkansas; test: Cultivar screening, fenclorim seed treatment, field plots, aerial image groundcover; conditions: 2.5 g fenclorim per kg of seed vs 0; 45 days after emergence; averaged across all cultivars
Experimental: (§1) An experiment was conducted to screen for the effects of a fenclorim seed treatment across sixteen of the most common rice cultivars planted in the state of Arkansas. The cultivars screened in the study included ten long-grain inbreds, three medium-grain inbreds, and three long-grain hybrids: ‘Diamond’, ‘Jewel’, ‘DG363L’, ‘CLL 15’, ‘CLL 16’, ‘CLL 17’, ‘PVL02’, ‘PVL03’, ‘RTV7231MA’, ‘CLJ 01’, ‘Jupiter’, ‘Titan’, ‘Lynx’, ‘RT753XP’, ‘RT7321FP’, and ‘RT7521FP’. All seeds were treated with a base treatment comprising a standard rice insecticide (i.e., NipsIt®) and fungicide (i.e., a combination of metalaxyl, fludioxonil, carboxin, and thiram) using a commercial seed treater. Additionally, each seed was treated with 0 or 2.5 g fenclorim per kg of seed. Seed was planted on Apr. 19, 2021, utilizing nine-row plots (5.2 m by 3 m). Aerial images were captured using a DJI Mavic Air 2 45 days after emergence, and images were analyzed using Turf Analyzer.

[2] = test system: four rice cultivars (Diamond, Titan, RT7521FP, and RT7321FP); test: Fenclorim dose-response study, results over all four cultivars; conditions: for Increase over control % (groundcover): averaged over all four cultivars, 45 days after emergence
Experimental: (§2) On Apr. 17, 2021, an experiment was initiated to identify the best rate at which to apply fenclorim as a rice seed treatment. The experiment was conducted using four rice cultivars (Diamond, Titan, RT7521FP, and RT7321FP) and 5 rates of the fenclorim (0, 0.625, 1.25, 2.5, and 5 g/kg seed). Seeds were treated using the aforementioned methods with all seeds having the same base seed treatment. […] At 2.5 g fenclorim per kg of seed, there was a 22% increase (averaged across cultivars) in groundcover compared to the no fenclorim treatment at 45 days after emergence. In this study, rice plant heights and shoot numbers were measured 30 days after emergence. The heights of five random plants were measured per plot and shoot numbers were measured in two 0.5 m sections of row.

rice cultivar RT7321FP = test: Fenclorim dose-response study, seed treatment (groundcover, shoot numbers); conditions: for Shoots (%), percentage of shoot numbers produced by control plants: 30 days after emergence; for Groundcover (%): 45 days after emergence
Experimental: as §2

rice cultivar Titan = test: as above; conditions: for Shoots (%), percentage of shoot numbers produced by control plants: 30 days after emergence; for Groundcover (%): 45 days after emergence
Experimental: as §2

rice cultivar RT7521FP = test: as above; conditions: for Shoots (%), percentage of shoot numbers produced by control plants: 30 days after emergence; for Groundcover (%): 45 days after emergence
Experimental: as §2

rice cultivar Diamond = test: as above; conditions: for Shoots (%), percentage of shoot numbers produced by control plants: 30 days after emergence; for Groundcover (%): 45 days after emergence
Experimental: as §2

[3] = test system: rice seeds of the cultivar Diamond; test: Greenhouse biostimulant experiment; conditions: 2.5 g/kg of seed vs 0, 30 days after emergence, silt loam soil
Experimental: A greenhouse biostimulant experiment was performed in 2 experimental runs. Fenclorim was applied to rice seed at 0 or 2.5 g/kg of seed. Five rice seeds of the cultivar Diamond were planted in silt loam soil in 4″ diameter pots 0.5″ apart. At least 9 replications were performed per run. At 14 days after emergence, emerged rice was counted and thinned to 3 plants per pot. Data were collected 30 days after emergence. The leaf area of the rice plants in each pot was determined. Groundcover was determined based on the number of green leaf pixels from an overhead image. Shoot (aboveground) and root (belowground) biomass were determined, and total biomass was determined by adding the mass of the roots and shoots.

Diamond rice = Diamond rice evaluation in heavy clay soil, drone image groundcover; conditions: 2.5 g fenclorim per kg of seed vs 0, 45 days after emergence
Experimental: as §1
An experiment was conducted to test whether fenclorim seed treatment would influence rice growth in a heavy clay soil. Diamond rice was planted on Apr. 22, 2021, using the same practices as the previous experiment, including a treatment with 0 or 2.5 g fenclorim per kg of seed.

Clc1cc(Cl)nc(-c2ccccc2)n1 [fenclorim, 4,6-dichloro-2-phenylpyrimidine]
increase in groundcover [1]: 7%
rice plant heights ([2]; 0.625-5 g/kg seed vs 0, 30 days after emergence, five random plants per plot): not influenced
shoot number, effect as the seed treatment rate increased ([2]; 0.625-5 g/kg seed vs 0, 30 days after emergence, two 0.5 m sections of row): an increase in shoot number was observed
Increase over control % (groundcover) ([2]; 0.625 g/kg seed): 12%
Increase over control % (groundcover) ([2]; 1.25 g/kg seed): 18%
Increase over control % (groundcover) ([2]; 2.5 g/kg seed): 22%
Increase over control % (groundcover) ([2]; 5.0 g/kg seed): 23%
Shoots (%), percentage of shoot numbers produced by control plants (rice cultivar RT7321FP; 0.625 g/kg seed): 115.2%
Groundcover (%) (rice cultivar RT7321FP; 0.625 g/kg seed): 41.2%
Shoots (%), percentage of shoot numbers produced by control plants (rice cultivar RT7321FP; 1.25 g/kg seed): 110.3%
Groundcover (%) (rice cultivar RT7321FP; 1.25 g/kg seed): 46.0%
Shoots (%), percentage of shoot numbers produced by control plants (rice cultivar RT7321FP; 2.5 g/kg seed): 108.4%
Groundcover (%) (rice cultivar RT7321FP; 2.5 g/kg seed): 53.9%
Shoots (%), percentage of shoot numbers produced by control plants (rice cultivar RT7321FP; 5.0 g/kg seed): 112.3%
Groundcover (%) (rice cultivar RT7321FP; 5.0 g/kg seed): 50.3%
Shoots (%), percentage of shoot numbers produced by control plants (rice cultivar Titan; 0.625 g/kg seed): 111.1%
Groundcover (%) (rice cultivar Titan; 0.625 g/kg seed): 49.3%
Shoots (%), percentage of shoot numbers produced by control plants (rice cultivar Titan; 1.25 g/kg seed): 110.5%
Groundcover (%) (rice cultivar Titan; 1.25 g/kg seed): 47.3%
Shoots (%), percentage of shoot numbers produced by control plants (rice cultivar Titan; 2.5 g/kg seed): 105.3%
Groundcover (%) (rice cultivar Titan; 2.5 g/kg seed): 48.1%
Shoots (%), percentage of shoot numbers produced by control plants (rice cultivar Titan; 5.0 g/kg seed): 102.4%
Groundcover (%) (rice cultivar Titan; 5.0 g/kg seed): 50.6%
Shoots (%), percentage of shoot numbers produced by control plants (rice cultivar RT7521FP; 0.625 g/kg seed): 110.7%
Groundcover (%) (rice cultivar RT7521FP; 0.625 g/kg seed): 51.8%
Shoots (%), percentage of shoot numbers produced by control plants (rice cultivar RT7521FP; 1.25 g/kg seed): 112.4%
Groundcover (%) (rice cultivar RT7521FP; 1.25 g/kg seed): 52.5%
Shoots (%), percentage of shoot numbers produced by control plants (rice cultivar RT7521FP; 2.5 g/kg seed): 108.8%
Groundcover (%) (rice cultivar RT7521FP; 2.5 g/kg seed): 51.2%
Shoots (%), percentage of shoot numbers produced by control plants (rice cultivar RT7521FP; 5.0 g/kg seed): 111.9%
Groundcover (%) (rice cultivar RT7521FP; 5.0 g/kg seed): 55.9%
Shoots (%), percentage of shoot numbers produced by control plants (rice cultivar Diamond; 0.625 g/kg seed): 98.6%
Groundcover (%) (rice cultivar Diamond; 0.625 g/kg seed): 47.3%
Shoots (%), percentage of shoot numbers produced by control plants (rice cultivar Diamond; 1.25 g/kg seed): 111.1%
Groundcover (%) (rice cultivar Diamond; 1.25 g/kg seed): 54.6%
Shoots (%), percentage of shoot numbers produced by control plants (rice cultivar Diamond; 2.5 g/kg seed): 106.9%
Groundcover (%) (rice cultivar Diamond; 2.5 g/kg seed): 54.2%
Shoots (%), percentage of shoot numbers produced by control plants (rice cultivar Diamond; 5.0 g/kg seed): 100%
Groundcover (%) (rice cultivar Diamond; 5.0 g/kg seed): 52.2%
increase in aboveground biomass [3]: 14%
increase in belowground biomass [3]: 63%
increase in groundcover [3]: 15%
increase in leaf area [3]: 23%
increase in total biomass [3]: 40%
increase in groundcover (Diamond rice): 4%
